Reference: ChEMBL document CHEMBL5321247, “Discovery of NXT-10796, an orally active, intestinally restricted EP4 agonist prodrug for the treatment of inflammatory bowel disease” (Bioorg Med Chem Lett, 2023)
Calls of active or inactive are those of the source. The calls are words filed in the database; no cut-off is given here.

Columns and labels:
[1] = Drug uptake in BALB/c mouse plasma at 1 mg/kg, po or iv; type: ADME, organism-based; settings: in vivo
[2] = Drug uptake in BALB/c mouse Colon at 1 mg/kg, po measured at 24 hrs; type: ADME, organism-based; settings: in vivo
[3] = Drug uptake in BALB/c mouse Feces at 1 mg/kg, po measured at 24 hrs; type: ADME, organism-based; settings: in vivo
Mus musculus = test: In vivo agonist activity at EP4 in po dosed C57BL/6J mouse assessed as increase in renin level in plasma at 10 mg/kg, po measured after 2 hrs; type: functional, organism-based
[4] = In vivo agonist activity at EP4 in po dosed C57BL/6J mouse assessed as increase in Ccl5 expression in colon administered for 3 days by qPCR analysis; type: organism-based; settings: 72 h, dose 1-5 mg/kg, time 3 day
[5] = Cmax in BALB/c mouse plasma at 1 mg/kg, po or iv measured at 24 hrs; type: ADME, organism-based; parameters: dose 1 mg/kg, time 24 hrs, route po
[6] = Oral bioavailability in BALB/c mouse at 1 mg/kg measured at 24 hrs; type: ADME, organism-based; settings: in vivo
[7] = Drug uptake in BALB/c mouse Colon at 1 mg/kg, po; type: ADME, organism-based; settings: in vivo
[8] = Drug uptake in BALB/c mouse Feces at 1 mg/kg, po; type: ADME, organism-based; settings: in vivo

| Drug uptake [1] | Drug uptake [2] | Drug uptake [3] | Activity [4] | Cmax [5] | bioavailability [6] | Drug uptake [7] | Drug uptake [8] | Structure (SMILES) | Activity (Mus musculus) |
| --- | --- | --- | --- | --- | --- | --- | --- | --- | --- |
| Not Active | Active | Active |  |  |  |  |  | O=C(CCCCCCN1C(=O)CC[C@@H]1/C=C/[C@@H](O)Cc1ccccc1)NS(=O)(=O)c1ccccc1 |  |
|  |  |  | Dose-Dependent Effect |  |  |  |  | O=C(CCCCCCN1C(=O)CC[C@@H]1/C=C/[C@@H](O)Cc1ccccc1)NNC(=O)C(=O)O | inactive |
|  | Active | Active |  | ~50 nM | 3% | Active | Active | O=C(O)CCCCCCN1C(=O)CC[C@@H]1/C=C/[C@@H](O)Cc1ccccc1 |  |
